Results: publication PMC6308799, “In vitro and in vivo Inhibitory Activity of NADPH Against the AmpC BER Class C β-Lactamase” (Frontiers in Cellular and Infection Microbiology, 2018)

Experiments:
[1] = molecular target: T1, AmpC EC2 (Escherichia coli, UniProt A7TUE6); assay: nitrocefin hydrolysis initial velocity at […] ([…] inhibition range for the set); type: biochemical
[2] = molecular target: T2, CMY-10 (Klebsiella aerogenes, UniProt Q99QC1); assay: nitrocefin hydrolysis initial velocity at […] NADPH; type: biochemical
T2 construct: gene blaCMY-10

[3] = molecular target: T3, CMY-2 (Klebsiella pneumoniae, UniProt Q48434); assay: nitrocefin hydrolysis initial velocity at […] NADPH; type: biochemical
T3 construct: gene blaCMY-2

[4] = molecular target: T1, AmpC EC2; assay: nitrocefin hydrolysis initial velocity at […] NADPH; type: biochemical
[5] = molecular target: T1, AmpC EC2; assay: ITC (KD […]); also steady-state nitrocefin kinetics (competitive, Ki […]); type: binding

SMILES	nitrocefin hydrolysis initial velocity at 2 mM (~15-55% inhibition range for the) [1]	nitrocefin hydrolysis initial velocity at 2 mM NADPH [2]	nitrocefin hydrolysis initial velocity at 2 mM NADPH [3]	nitrocefin hydrolysis initial velocity at 2 mM NADPH [4]	Kd [5]
Cc1cc2nc3c(=O)[nH]c(=O)nc-3n(C[C@H](O)[C@H](O)[C@H](O)COP(=O)(O)OP(=O)(O)OC[C@H]3O[C@@H](n4cnc5c(N)ncnc54)[C@H](O)[C@@H]3O)c2cc1C [FAD]	all tested adenosine dinucleotides including FAD, NAD, NADP, and NADPH reduced the initial velocity of nitrocefin hydrolysis catalyzed by AmpC BER				
NC(=O)c1ccc[n+]([C@@H]2O[C@H](COP(=O)([O-])OP(=O)(O)OC[C@H]3O[C@@H](n4cnc5c(N)ncnc54)[C@H](O)[C@@H]3O)[C@@H](O)[C@H]2O)c1 [NAD]	all tested adenosine dinucleotides including FAD, NAD, NADP, and NADPH reduced the initial velocity of nitrocefin hydrolysis catalyzed by AmpC BER				
NC(=O)C1=CN([C@@H]2O[C@H](COP(=O)(O)OP(=O)(O)OC[C@H]3O[C@@H](n4cnc5c(N)ncnc54)[C@H](OP(=O)(O)O)[C@@H]3O)[C@@H](O)[C@H]2O)C=CC1 [NADPH]		NADPH also reduced the initial velocity of nitrocefin hydrolysis catalyzed by other class C β-lactamases including ACC-1, AmpC EC2, CMY-2, and CMY-10	NADPH also reduced the initial velocity of nitrocefin hydrolysis catalyzed by other class C β-lactamases including ACC-1, AmpC EC2, CMY-2, and CMY-10	NADPH also reduced the initial velocity of nitrocefin hydrolysis catalyzed by other class C β-lactamases including ACC-1, AmpC EC2, CMY-2, and CMY-10	40 µM
